Assay results taken from patent US8895260B2, “Screening assay for ribosomal antibiotics” (priority 2006, dated 2014).

What was measured:
Format in all cases: cell-based, Mycobacterium smegmatis
[1] = tested on: bacterial hybrid ribosomes carrying Homo sapiens mitochondrion rRNA decoding site; test: MIC, bacterial hybrid ribosomes carrying human mitochondrial rRNA decoding site; set-up: unit not given here; conditions: Homo sapiens mitochondrion decoding site in bacterial hybrid ribosome
Experimental: (§1) The recombinants carrying the respective mutational alterations in the functional rRNA operon were colony-purified and subjected to determinations of minimal inhibitory concentrations (MIC) to determine ribosomal drug susceptibility. Cultures from single colonies were grown in LB medium supplemented with 0.05% Tween 80 and used for MIC tests in a microtiter plate format. Starting cultures contained 200 μl of bacterial cells at an optical density of 0.025 at 600 nm, and the respective drug was added in twofold series of dilution.
(§2) The MIC data shown below in example 5 were obtained with bacterial hybrid ribosomes carrying human and protozoan rRNA decoding sites in a method of the invention. […] Nucleotide positions depicted in bold represent residues that are specific for the corresponding eukaryotic decoding site. The part of the human and protozoan decoding sites introduced into the bacterial ribsosome is boxed. The nucleotide positions are numbered according to the numbering of homologous positions in E. coli 16S rRNA.

[2] = tested on: bacterial hybrid ribosomes carrying Leishmania Trypanosoma rRNA decoding site; test: MIC, bacterial hybrid ribosomes carrying protozoan rRNA decoding site; set-up: unit not given here; conditions: Leishmania Trypanosoma decoding site in bacterial hybrid ribosome
Experimental: as §1, §2

[3] = tested on: wild type bacterial cells 1408A; test: MIC of rRNA mutants, wild type bacterial cells 1408A
Experimental: as §1
(§3) This was illustrated by the polymorphism of 16S rRNA position 1408 and susceptibility to 4,6-aminoglycosides with a 6′ NH3 group (e.g. gentamicin, tobramycin, kanamycin). 4,6-aminoglycosides with a 6′ NH3 group bound to the ribosomal A-site encompassing nucleotides […] and selectively targeted the bacterial ribosome, but not the eukaryotic cytoplasmic ribosome. An important polymorphism in the rRNA concerns nucleotide position 1408: prokaryotic ribosomes are characterized by an adenine, eukaryotic cytoplasmic ribosomes by a guanine. Replacing the adenine by a guanine at 16S rRNA position 1408 made the bacterial ribosome completely unsusceptible towards 4,6-amino-glycosides with a 6′ NH3 group (see Table). […]

[4] = tested on: mutant bacterial cells 1408G; test: MIC of rRNA mutants, mutant bacterial cells 1408G (human cytoplasmic nucleotide at 16S rRNA position 1408)
Experimental: as §1, §3

M. smegmatis = test: MIC, M. smegmatis with bacterial rRNA decoding site; set-up: unit not given here
Experimental: as §1, §2

**Q.** What does the source list for Gentamicin?
**A.** MIC [1]: 64-128; MIC [2]: >1024; MIC, minimal inhibitory concentration ([3]; wild type bacterial cells 1408A, 72h at 37° C.): 1 µg/mL; MIC, minimal inhibitory concentration ([4]; mutant bacterial cells 1408G, 72h at 37° C.): >1024 µg/mL; MIC (M. smegmatis): 1

**Q.** Which results are given for Neomycin?
**A.** MIC [1]: 16-32; MIC [2]: >1024; MIC (M. smegmatis): 0.5

**Q.** `NC[C@H]1O[C@H](O[C@H]2[C@H](O)[C@@H](O[C@H]3O[C@H](CO)[C@@H](O)[C@H](N)[C@H]3O)[C@H](N)C[C@@H]2N)[C@H](N)C[C@@H]1O` [Tobramycin] was tested. Which MIC ([3]; Mycolicibacterium smegmatis, 72 h, read-out: MIC, minimal inhibitory concentration) did it give?
**A.** 2 µg/mL

**Q.** And the MIC ([4]; Mycolicibacterium smegmatis, CELLS1408G, 72 h, read-out: MIC, minimal inhibitory concentration)?
**A.** > 1020 µg/mL
